No end group written: not given here.
Tests used:
[1] = target: T1, IL1RI (Homo sapiens, UniProt P14778); experiment: SPR (BiaCore) binding to immobilized IL1RI ectodomain; conditions: 25° C., pH 7.4
T1 construct: The recombinant protein comprising the whole extracellular part of IIL1RI was immobilised on the surface of a CM5 sensor chip
T1 sequence (P14778 18-336 limits assumed): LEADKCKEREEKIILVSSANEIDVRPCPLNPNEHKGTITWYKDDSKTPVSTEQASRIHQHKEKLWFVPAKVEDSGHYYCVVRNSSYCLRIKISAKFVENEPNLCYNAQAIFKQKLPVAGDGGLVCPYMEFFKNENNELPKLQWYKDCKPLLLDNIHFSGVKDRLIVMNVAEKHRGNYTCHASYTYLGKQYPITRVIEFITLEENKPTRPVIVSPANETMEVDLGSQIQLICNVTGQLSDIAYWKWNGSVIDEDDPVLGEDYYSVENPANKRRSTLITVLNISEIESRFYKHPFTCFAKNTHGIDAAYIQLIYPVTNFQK
Description: Binding analysis was performed using a BiaCore 2000 Instrument (BiaCore AB, Uppsala, Sweden) at 25° C. using 10 mM sodium phosphate (pH 7.4), 150 mM NaCl as running buffer. The flow-rate was 5 μl/min. Data were analysed by nonlinear curve fitting using the manufacturer's software. The recombinant protein comprising the whole extracellular part of IIL1RI was immobilised on the surface of a CM5 sensor chip by means of electrostatic interactions, and the peptide and the IL1β and IL1Ra proteins were injected at various concentrations. The curves corresponding to the difference between binding to peptides and a blank chip were used for analysis.

[2] = tested on: collagen-induced arthritis (CIA); experiment: Collagen-induced arthritis in rats, treatment from day 15 (Example 7); type: in vivo, rat; conditions: 3.3 and 10 mg/kg s.c. daily from day 15
Excerpt: Rheumatoid arthritis is a chronic, inflammatory, systemic autoimmune disease that affects about 1% of the general population in Western countries. Collagen-induced arthritis (CIA) in rats is a widely employed animal model for the screening of anti-inflammatory compounds. Collagen bovine, type II (CII, Cat.no.20021, Lot 090209, Chondrex, USA), Complete Freund's Adjuvant, containing 0.1% of Mycobacterium tuberculosis (CFA, Cat.no. F5581, Lot 049K8700, Sigma-Aldrich), Incomplete Freund's Adjuvant (IFA, Cat.no. F5506, Lot 058K8702, Sigma). PBS (Panum Institute, Copenhagen University). Isofluran (Baxter). Animals were immunized twice: on day 0 (CII+CFA) and on day 10 (CII+IFA, booster). On day 15 the mean clinical score reached a value of 5.0 and all animals were divided into 3 groups so that the severity of disease (mean clinical score) in all groups was almost equal. The peptide (two doses, 3.3 and 10 mg/kg) was administered subcutaneously daily starting at day 15. The clinical evaluation of the arthritis severity was assessed using the following grading system: O— no redness or swelling in foot and palm; 1—slight swelling or redness in metatarsophalangeal joint and ankle joint foot or palm; 2—progressed swelling/inflammation and redness from ankle to mid foot or in entire palm; 3—swelling/inflammation of entire foot except toes; 4—swelling and inflammation of entire foot including toes.

[3] = tested on: collagen-induced arthritis (CIA); experiment: Collagen-induced arthritis in rats, treatment dpi 8-15 (Example 14); type: in vivo, rat; conditions: 10.0 mg/kg s.c. daily dpi 8-15
Description: Induction of CIA. The CIA study was performed on a total of 40 male Wistar rats with an average weight of 150 g at the beginning of the experiment. CIA was induced by subcutaneous (s.c.) injection of bovine collagen type II (CII, Sigma-Aldrich) solubilised in 0.05 M acetic acid (2 mg/ml), and then emulsified 1:1 with CFA (Sigma-Aldrich) containing […] heat-inactivated M. tuberculosis. Under inhalation anaesthesia (Isofluran, 3%) 250 μl of the emulsion containing 250 μg of CII and […] was injected (s.c.) at the tail base (post-immunization day, dpi 0).
Treatment design. At dpi 8, before onset of clinical signs, all animals were randomly divided into two groups, 20 rats per group, and were dosed daily during 8 days (dpi 8-15) with Ilantafin (10.0 mg/kg, s.c.) or vehicle (PBS, 1.0 ml/kg, s.c.). […]
Clinical scores. An observer blinded to treatment groups evaluated the severity of arthritis employing the following grading system: O— no redness or swelling in foot; 1—slight redness in foot or redness and swelling in single interfalangeal joints; 2—moderate swelling and redness in ankle and metatarsal part of foot; 3—marked swelling and redness of entire foot, restricted usage of foot in locomotion; 4—marked swelling and redness of entire foot, impossibility of usage foot in locomotion and rearing. […]

SGRKSSKMQA [Ilantafin]
affinity of interaction with immobilized ectodomain of IL1RI [1]: within the same order of magnitude as the binding affinities of IL1β and IL1Ra to IL1RI | clinical manifestations (clinical score) of CIA [2]: abrogates an increase in clinical manifestations of CIA in rats | morbidity (percentage of animals reached clinical index 7) [3]: significantly reduced morbidity by dpi 12 | severity of CIA (clinical score) [3]: attenuated severity of CIA on dpi 13-15
